From PMC6956804, “Potent antibacterial activity of MSI-1 derived from the magainin 2 peptide against drug-resistant bacteria” (Theranostics, 2020)
In brackets after ≈: the same amount, converted by molar mass. Where two headings read alike, the source gives them in different places. Peptide text beside a SMILES is read from it.

How the values were obtained:
[1] = test system: Penicillin-resistant E. coli; test: Local E. coli infection in scalded mouse model; format: in vivo, mice; settings: for subeschar colonies reduced to: topical once a day
Procedure: To further investigate whether MSI-1 could protect from bacterial infection of the skin, mice were anesthetized with pentobarbital sodium (50 mg/kg, i.p) and shaved on the dorsal surfaces. The depilated skin was secured with 2-cm-diameter plastic containers that filled up with boiling water at contact time 10 s. Afterwards, a full-thickness wound (2 cm in diameter) was cut on the burned skin of each mouse. Penicillin-resistant E. coli suspension (100 µl, 1× 10^10 CFU/ml) was slowly inoculated over wound with a pipette tip, and a gentle stream of air was aimed over the inoculation site until skin appeared wet but absent of any standing volume from the inoculum suspension. Two hours later, vehicle (3% CMC-Na), MSI-1 or polymyxin, which was suspended in sterile CMC-Na (3%) in PBS at concentration of 10, 5, 2.5 mg/ml (MSI-1) or 5 mg/ml (polymyxin), was inoculated on the same area with a pipette tip, 1 ml/kg, once a day (n=15 per group). Mice were fed in cages individually to avoid cross infection and were treated daily for 7 consecutive days. At 3rd and 7th days, cutaneous wound healing and bacteria counts in skin lesion were measured. Moreover, 12 h after the last treatment, blood samples were collected from the retro-orbital venous plexus under anesthesia (pentobarbital sodium, 50 mg/kg). Finally, all animals were euthanized by cervical dislocation to collect the lung samples for counting live bacteria. The contents of TNF-α and IL-6 in skin homogenates and serum were measured by ELISA. Skin lesion was fixed by 4% paraformaldehyde for H&E staining. The expression levels of EGF and VEGF in skin lesion were examined by immunohistochemistry. In addition, the wound scratch assay was also performed on HaCaT cells to further test whether MSI-1 improved wound healing by promoting keratinocyte migration.

Plasma stability = format: in vitro ADME, mouse; settings: for antibacterial activities after plasma incubation: turbidimetry
Source text: (§4) At indicated time points, samples were denatured with equal volumes of 6 M urea and subjected to HPLC analysis or antibacterial activity evaluation.

pepsin = pepsin (Sus scrofa, UniProt P00791); settings: peptide:protease 300:1, 0.1 M NH4HCO3 pH 8.2, room temperature, HPLC; peak time shifted from 6.187 to 6.792 min (0.5 h)
Chain of pepsin (P00791 60-385): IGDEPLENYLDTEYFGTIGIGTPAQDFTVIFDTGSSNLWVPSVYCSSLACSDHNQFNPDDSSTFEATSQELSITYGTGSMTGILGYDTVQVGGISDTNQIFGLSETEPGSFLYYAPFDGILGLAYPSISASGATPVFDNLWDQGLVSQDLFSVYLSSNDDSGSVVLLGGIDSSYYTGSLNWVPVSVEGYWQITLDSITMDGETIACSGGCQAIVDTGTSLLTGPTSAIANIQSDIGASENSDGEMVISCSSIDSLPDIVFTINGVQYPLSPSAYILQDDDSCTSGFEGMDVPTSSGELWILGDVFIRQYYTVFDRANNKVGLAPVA
Source text: Aliquots of the mixture were extracted periodically and diluted with water/acetonitrile (3:2, v:v) containing 2% TFA for HPLC detection or for antibacterial activity assay [18].

E. coli = test: ONPG assay, release of cytoplasmic β-galactosidase; format: cell-based; settings: 2 h
Procedure: (§1) E. coli were mixed with different concentrations of MSI-1, incubated for 2 h, resuspended by PI solution (20 μg/ml), and ultimately subjected to flow cytometry for PI uptake assay. Calcein-loaded liposomes were prepared to imitate bacterial membrane. Serially diluted peptide was added into liposomes (1:1, v:v) after obtaining the fluorescence intensity at λex/λem=490/520 nm. Once MSI-1 addition, fluorescence intensity was detected at 0, 3, 5, 10, 15 and 20 min. Calcein release rate was calculated as previously described. To observe bacterial morphology, E. coli treated with MSI-1 (32 μg/ml) or PBS for 2 h was collected, fixed by 2.5% glutaraldehyde and subjected to scanning electron microscopy (SEM) assay (SUI510, Hitachi, Japan). In addition, E. coli were resuspended in reaction buffer (60 mM Na2HPO4^. 7H2O, 40 mM NaH2PO4^. H2O, 10 mM KCl, 1 mM MgSO4.7H2O, 0.27% 2-Mercaptoethanol), incubated with ONPG (2.5 mg/ml) and MSI-1 for 2 h. Bacteria envelope integrity was calculated by the percentage of O-nitrophenol production.

Helicobacterpylori SS1 = format: cell-based; settings: 4 h
Procedure: Bacterial strains were purchased from the American Type Culture Collection (ATCC). All clinical strains were isolated from human clinical specimens by the Medical Laboratory Center of Zhongda Hospital (Nanjing, Jiangsu, China). Ndm-1, tem-1, ctx-m-1, shv-1 -carrying bacteria were constructed as previously described. The recombinant bacteria carrying drug-resistant genes were prepared in LB nutrient and induced by IPTG (1 mM) for 4 h before text. Other bacterial strains were respectively prepared in MHB and Columbia Blood Agar Base.
(§2) A standard micro-broth serial dilution assay was used to measure MIC of peptides. MIC was obtained by a microplate reader at 600 nm. MBC was determined as previously described.

G- and G+ bacteria = test: Antimicrobial activity, summary over the strains; format: cell-based; settings: MIC expressed in μM, compared with IC50 on eukaryotic cells
Procedure: as §2

[2] = test system: ndm-1-carrying recombinant E. coli; test: Time-killing assay; format: cell-based; settings: 4× MIC, time-kill curve
Procedure: (§3) Bacteria were incubated with MSI-1, penicillin G sodium salt, vancomycin or methicillin at 4× MIC. Samples were removed at 0, 0.5, 1, 2, 4, and 8 h for bacterial counts.

[3] = test system: S. epidermidis (methicillin-resistant); test: Time-killing assay; format: cell-based; settings: 4× MIC, time-kill curve
Procedure: as §3

[4] = 20% fresh mouse serum, turbidimetry
Source text: as §4

[5] = test system: penicillin-resistant E. coli; test: Bacteria growth curve and viability at sub-MICs; format: cell-based
Procedure: E. coli were mixed with sub-MICs MSI-1 and OD600 value was recorded every 2 h throughout 26 h of coincubation. In addition, bacteria were suspended with nutrient broth containing MSI-1 and subjected to routine MTT assay after 24 h incubation.

pH stability = format: physicochemical
Procedure: MSI-1 at 2 mg/ml in PBS (pH 7.0), aqueous HCl (pH 3.0) and aqueous NaOH (pH 11.0) were incubated for 2, 4, 12 and 24 h at 37 °C. The remaining MSI-1 was measured by HPLC. In addition, the bacteria colonies survived 1× MIC of HCl or NaOH treated peptide were recorded simultaneously. That is, after 18 h coincubation, the absorbance which represents the bacteria colonies survived, was recorded by a microplate reader at 600 nm.

[6] = Calcein release from liposomes; settings: 4× MIC
Procedure: as §1

CC[C@H](C)[C@H](NC(=O)CN)C(=O)N[C@@H](Cc1c[nH]c2ccccc12)C(=O)N[C@@H](CCCCN)C(=O)N[C@@H](Cc1ccccc1)C(=O)N[C@@H](CC(C)C)C(=O)N[C@@H](CCCCN)C(=O)N[C@@H](CCCCN)C(=O)N[C@@H](C)C(=O)N[C@@H](CCCCN)C(=O)N[C@@H](CCCCN)C(=O)N[C@@H](Cc1ccccc1)C(=O)N[C@@H](Cc1c[nH]c2ccccc12)C(=O)N[C@@H](CCCCN)C(N)=O [MSI-1] (H-GIWKFLKKAKKFWK-NH2)
TNF-α and IL-6 in skin lesion homogenate ([1]; 10 mg/kg, 7th day, ELISA): strongly reduced | subeschar colonies reduced to ([1]; 10 mg/kg, after 3 days): 38.6% | subeschar colonies reduced to ([1]; 10 mg/kg, after 7 days): 49% | wound closure ([1]; 3rd and 7th days, especially at 10 mg/kg): significantly improved wound closure | bacterial colonies in the lung and blood ([1]; 7th day, MSI-1 5 and 10 mg/kg, polymyxin B, p<0.01 vs the model group): obviously decreased | expression of EGF and VEGF in the burned and infected skin ([1]; immunohistochemistry): no obvious effect | remaining at 0.5 h, 1.6 mg/ml (Plasma stability; 20% fresh mouse plasma, 37 °C, 0.5 h, HPLC, read-out: remaining peptide): ~77% | remaining peptide (Plasma stability; 20% fresh mouse plasma, 37 °C, 2 h, HPLC): ~67.5% | antibacterial activities after plasma incubation (Plasma stability; 20% fresh mouse plasma, 0.5 h): 97.2% | antibacterial activities after plasma incubation (Plasma stability; 20% fresh mouse plasma, 2 h): 60.7% | bacteriostatic activity (Plasma stability; either mouse plasma or serum, post 2 h coincubation (summary in the discussion)): approximately 50% | remaining at 2 h, 1.6 mg/ml (Plasma stability; fresh mouse plasma or serum (one summary value for both), either mouse plasma or serum, post 2 h coincubation (summary in the discussion), read-out: remaining peptide): 60% | stability in pepsin solution (pepsin): some peptide hydrolysates might be produced | activity in the supernatants (β-galactosidase release, relative to sonicated bacteria) (E. coli; 2× MIC): 36.7% | activity in the supernatants (β-galactosidase release, relative to sonicated bacteria) (E. coli; 4× MIC): 80.7% | MBC (Helicobacterpylori SS1): 64 µg/mL (≈ 35.4 µM) | MIC (Helicobacterpylori SS1): 32 µg/mL (≈ 17.7 µM) | effective antimicrobial concentration in vitro (G- and G+ bacteria): 4.4 to 8.8 µM | time to thorough elimination of the bacteria [2]: ≤ 4 h | reduction in CFU counts [3]: approximately 5 log units | time to thorough bacteria elimination [3]: ≤ 240 min | inhibition rate against bacteria after serum incubation ([4]; 0.5 h): 76.8% | inhibition rate against bacteria after serum incubation ([4]; 2 h): 46.9% | growth pattern of bacteria ([5]; 1/4 and 1/8 MIC, OD600 over 26 h): not significantly altered | cell viability vs control ([5]; sub-MICs, MTT, within 26 h, p>0.05): no significant difference | percentage of remaining MSI-1 (pH stability; 2 mg/ml in aqueous HCl (pH 3.0), aqueous NaOH (pH 11.0) or PBS (pH 7.0), 37 °C, within 24 h, HPLC): 99%-100% | effect of HCl (pH 3.0) and NaOH (pH 11.0) treatment on MIC against bacteria (pH stability; treated peptide at 1× MIC, 18 h, 600 nm): did not affect the MIC | leakage of Calcein [6]: over 80%
